The subject of assay [1] is PBMC. Description: MTT cell viability assay. The following applies: Homo sapiens, 72 h, 10%FBS growth media. The assay is classed as cell-based. As for the experimental part:
(§1) Straightforward, the tetrazolium salt 3-(4,5-methyltiazol-2yl-)-2,5diphenyl-tetrazolium bromide (MTT) (Applichen, Darmstadt, Germany) was added to cells, incubated for 2–4 h at 37 °C, and lysed in 10% SDS.
(Formazan colour is commonly taken as a measure of viable cells.)

Assay [2] deals with BT-549 cells. Description: MTT cell viability assay. The following applies: Homo sapiens, BT-549, 72 h, 10%FBS growth media. The assay is classed as cell-based, human. As to the method: as §1
The test system of assay [3] is MDA-MB-231 cells. Description: MTT cell viability assay. In kind it is cell-based, human. The following applies: Homo sapiens, MDA-MB-231, 72 h, 10%FBS growth media. As for the experimental part: as §1
Assay [4] relates to SK-BR-3 cells. The assay can be described thus: MTT cell viability assay. The assay is classed as cell-based, human. Particulars: Homo sapiens, SK-BR-3, 72 h, 10%FBS growth media. As for the experimental part:
as §1

For assay [5], the system named is Hs-578T cells. Description: MTT cell viability assay. In kind it is cell-based, human. The following applies: Homo sapiens, Hs-578T, 72 h, 10%FBS growth media. As for the experimental part: as §1
Assay [6] has as its system Ishikawa cells. Description: MTT cell viability assay. Particulars: Homo sapiens, Ishikawa, read-out: IC50 (μM) ISHIKAWA, 72 h, 10%FBS growth media. The assay is classed as cell-based, human. As for the experimental part: as §1
Assay [7] concerns MCF-7/BUS cells. The assay can be described thus: MTT cell viability assay. Particulars: Homo sapiens, MCF7/BUS; 72 h, 10%FBS growth media, MTT; read-out: IC50 (μM) MCF-7/BUS. The assay is classed as cell-based, human. As for the experimental part: as §1
Assay [8] concerns MCF-10A cells. Description: MTT cell viability assay. In kind it is cell-based, human. The following applies: Homo sapiens, MCF-10A, 72 h, 10%FBS growth media. As for the experimental part:
as §1

Assay [9] relates to MCF-7 cells. Description: MTT cell viability assay. The assay is classed as cell-based, human. The following applies: Homo sapiens, MCF7, 72 h, 10%FBS growth media. As to the method:
as §1

Assay [10] deals with T47D cancer cell spheroids. The assay can be described thus: Real-time monitoring of 3D tumor spheroid growth. In kind it is cell-based, human. Particulars: 8 days.
The subject of assay [11] is glucocorticoid receptor (GR)-dependent transcriptional activity, MDA-kb2 cells. The assay can be described thus: GR-mediated transcription, luciferase reporter in MDA-kb2 cells (dexamethasone). The following applies: 100 nM Dexamethasone; compounds 1–10 µM. In general terms: Reporter assays use an easily measured gene product as a stand-in for the process of interest.
The subject of assay [12] is ERα, pS2 and PR mRNA in MCF-7 cells. Description: Quantitative real-time PCR of ERα-regulated genes. In kind it is cell-based, human. The following applies: 3 h pretreatment, E2 10 nM 24 h; 32 5 µM, 35 10 µM, ICI 0.1 µM, 4-OHTAM 1 µM. As to the method:
(§2) For gene expression analysis, MCF-7 and Ishikawa cells were deprived of steroid hormones by using a 10DCC-FBS medium for five days. Then, 1,500,000 cells/dish were seeded in 5DCC-FBS, followed by treatment with test compounds. Total RNA was isolated by using TRItidy G™ (Panreac Applichem ITW Reagents, Darmstadt, Germany). The concentration and purity of RNA were determined with a NanoDrop 1000 spectrophotometer (Wilmington, NC, USA). Then, 1 µg of total RNA was reversed and amplified with the iScriptTM kit (Bio-Rad) following the manufacturer’s protocol. SYBR Green PCR Master mix (Applied Biosystems, Bedford, MA, USA) reagent and exon-specific primers for ERα were used for Real-time quantitative PCR (qPCR). Gene expression was analyzed with an Mx3005P qPCR System (Agilent, Santa Clara, CA, USA), and cycle threshold values were calculated using MxPro qPCR Software (Agilent, CA, USA). Target gene expression was normalized to the expression of the 18S housekeeping gene. Data were expressed as relative expression values according to the comparative CT method for qPCR [42].
(In general: Real-time PCR tracks product formation cycle by cycle.)

For assay [13], the system named is ERα, pS2 and PR mRNA in Ishikawa cells. Description: Quantitative real-time PCR of ERα-regulated genes. The assay is classed as cell-based, human. The following applies: for effect on E2-induced mRNA expression: 3 h pretreatment, E2 10 nM 24 h; for induction of basal mRNA level of PR gene: absence of E2. As to the method: as §2
Assay [14] has as its system MCF-7 cells. Description: Drug combination assay with 4-OHTAM (MTT, Chou-Talalay). The following applies: for IC50: Homo sapiens, MCF7, 72 h, read-out: IC50, cell viability inhibition, single agent.
Description: (§3) Cells were seeded at 5000 and 7500 cells, per well, respectively, and cell viability was assessed by MTT assays 72 h after treatment. Briefly, cells were incubated with constant ratio combinations of indicated test compounds by doubling dilutions of the individual drugs over a wide range of concentrations [43]. […] Dose-effect curves of the individual or combined compounds were plotted and assessed by the median effect method of Chou and Talalay [43] using Calcusyn software 2.0 (Biosoft, Cambridge, UK), thus obtaining the combination index (CI) values. CI values less than 1, equal to 1, and greater than 1 indicated synergism, addition, and antagonism, respectively.
Assay [15] has as its target T1, native ERα from rat uterine cytosol (Rattus norvegicus, UniProt P06211).
T1 construct: from tissue; host or cells: uterine cytosol of ovariectomized Sprague-Dawley rats
Description: Radiolabeled E2 competitor binding assay in rat uterine cytosol (RUC). As to the method: Animal studies were approved by the Bioethics Committee of the University of Las Palmas de Gran Canaria (OEBA-ULPGC 40/2020), and the experiments were carried out according to OECD guidelines (ER-RVC OPPTS 890.1250). ER was obtained from rat uterine cytosol (RUC). Briefly, RUC was extracted from 8–12 weeks old Sprague-Dawley rats 13–16 days after they were ovariectomized under ketamine (75 mg/kg)/medetomidine (1 mg/kg) anesthesia. Uteri were removed, trimmed free of adipose tissue, blotted, weighed and frozen on liquid nitrogen until RUC isolation. Then, 100 mg of uteri per ml of ice-cold TEGM buffer (10 mM Tris, 1.5 mM EDTA, 10% glycerol, 3 mM MgCl2, 1 mM PMSF, 1 mM DTT, pH 7.4) were homogenized by using a Polytron PT3000 homogenizer (Kinematica, Malters, Switzerland) at 15,000 rpm for 3 bursts of 30″ each. The homogenate was sedimented, and the supernatant was centrifuged at 105,000 g for 60 min at 4 °C to obtain RUC. Protein concentration was determined by Bradford´s assay (Bio-Rad, Irvine, CA, USA), and 2 mg/mL of RUC was taken from all samples [35]. […] Then, 200 μL of DCC suspension (0.8% charcoal: 0.08% dextran; w:w) in cold TE buffer was added to each tube and incubated for 10 min before DCC was centrifuged at 3000 g for 10 min at 4 °C. Supernatant (200 μL) was obtained to measure total and non-specific bound radioactivity in TRICARB 4810 LSC counter (PerkinElmer). […]

Assay [16] relates to MCF-10A cells. The assay can be described thus: Drug combination assay with 4-OHTAM (MTT). Particulars: Homo sapiens, 72 h, read-out: IC50, cell viability inhibition.
Description: as §3
The test system of assay [17] is androgen receptor (AR)-dependent transcriptional activity, MDA-kb2 cells. The assay can be described thus: AR-mediated transcription, luciferase reporter in MDA-kb2 cells (testosterone). Particulars: 100 nM Testosterone; compounds 1–10 µM.
Where [18] appears, read: combination with 4-OHTAM, constant ratio, 72 h, CI <1 synergism.

Where only a bound is given, the exact number is not on record here.

T1 sequence (P06211 whole entry): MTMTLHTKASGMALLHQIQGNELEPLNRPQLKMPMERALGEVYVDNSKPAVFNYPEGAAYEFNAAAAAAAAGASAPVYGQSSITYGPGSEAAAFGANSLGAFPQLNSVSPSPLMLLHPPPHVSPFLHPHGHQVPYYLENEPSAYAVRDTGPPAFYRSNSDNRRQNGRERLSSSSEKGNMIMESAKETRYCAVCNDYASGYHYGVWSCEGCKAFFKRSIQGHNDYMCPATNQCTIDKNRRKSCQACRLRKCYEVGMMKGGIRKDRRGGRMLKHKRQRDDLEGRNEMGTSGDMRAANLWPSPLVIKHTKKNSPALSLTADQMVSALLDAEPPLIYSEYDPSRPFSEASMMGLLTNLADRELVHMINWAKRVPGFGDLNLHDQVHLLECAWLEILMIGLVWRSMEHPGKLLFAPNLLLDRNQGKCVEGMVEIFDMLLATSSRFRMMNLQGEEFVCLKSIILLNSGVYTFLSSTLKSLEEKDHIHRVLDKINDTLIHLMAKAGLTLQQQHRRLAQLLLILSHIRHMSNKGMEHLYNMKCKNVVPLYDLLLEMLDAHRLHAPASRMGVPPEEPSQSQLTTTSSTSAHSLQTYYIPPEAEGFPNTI

As to `Cc1ccc(C2=CC(O)(c3ccccc3)N(Cc3ccccc3)C2=O)cc1C` (centres unmarked) [compound 32, 1-benzyl-3-(3,4-dimethylphenyl)-5-hydroxy-5-phenyl-1H-pyrrol-2(5H)-one], the IC50 is more than 30 µM in assay [1]; 4.89 ± 0.96 µM in assay [2]; 7.63 ± 2.38 µM in [3]; 1.51 ± 0.09 µM in assay [4]; more than 10 µM in [5]; 0.27 ± 0.09 µM in [6]. Moreover, the IC50 in [7] is 5.32 ± 2.09 µM; in assay [8], 0.08 µM; in assay [9] it was 2.54 ± 0.49 µM; in [14] it was 690 nM; in [15] it was 128400 ± 1250 nM; in assay [16], 350 nM. Moreover, the “effect on spheroid growth” value in assay [10] was “reduced the growth of T47D cancer cell spheroids”. In assay [11], the “effect on DEX-induced luciferase activity” value is reported as “Neither 4-OHTAM nor compounds 32 or 35 displayed cross-activation”. Further, the “effect on E2-induced mRNA expression” value in [12] was “inhibited E2-induced ERα, pS2 and PR mRNA expression”; in [13], “significative reduction of PR-activated gene expression”. Moreover, the “induction of basal mRNA level of PR gene” value in assay [13] was 2.5 fold. The “CI for ED25” value in assay [14] (setting [18]) was 0.762 ± 0.02. In addition, the “CI for ED75” value in assay [14] (setting [18]) came to 0.6725 ± 0.06. The “CI for ED90” value in [14] (setting [18]) is given as 0.6395 ± 0.09. For the same compound, the “effect on T-induced luciferase activity” value in assay [17] is given as “Neither 4-OHTAM nor compounds 32 or 35 displayed cross-activation”.
With `O=C1C(c2ccc([N+](=O)[O-])cc2)=CC(O)(c2ccccc2)N1Cc1ccccc1` (centres unmarked) [compound 35, 1-benzyl-5-hydroxy-3-(4-nitrophenyl)-5-phenyl-1H-pyrrol-2(5H)-one], the IC50 turned out to be 17.3 ± 6.48 µM in [1]; 4.19 µM in [2]; 9.08 ± 0.93 µM in assay [3]; 2 ± 0.18 µM in [4]; 8.22 ± 1.78 µM in assay [5]; 1.29 ± 0.38 µM in assay [6]. Further, the IC50 in assay [7] is 2.64 ± 0.88 µM; in assay [8] it was 3.16 ± 0.09 µM; in assay [9], 2.59 ± 0.34 µM; in [14], 2270 nM; in assay [15] it was 76600 ± 1300 nM; in assay [16], more than 560 nM. Also, the “effect on spheroid growth” value in assay [10] was “reduced the growth of T47D cancer cell spheroids”. For the same compound, the “effect on DEX-induced luciferase activity” value in assay [11] is reported as “Neither 4-OHTAM nor compounds 32 or 35 displayed cross-activation”. Besides, the “effect on E2-induced mRNA expression” value in [12] was “inhibited E2-induced ERα, pS2 and PR mRNA expression”; in assay [13], “notably downregulated E2-induced ERα and PR mRNA levels”. For the same compound, the “induction of basal mRNA level of PR gene” value in assay [13] is recorded as 5 fold. Besides, the “CI for ED75” value in assay [14] (setting [18]) is listed as 0.26 ± 0.07. For the same compound, in assay [14] (setting [18]), the “CI for ED90” value turned out to be 0.32 ± 0.13. Besides, in assay [17], the “effect on T-induced luciferase activity” value was “Neither 4-OHTAM nor compounds 32 or 35 displayed cross-activation”.

These data come from publication PMC9655618 (Cancers, 2022).
